Patent US20210255193A1, “LYSINE REACTIVE PROBES AND USES THEREOF” (The Scripps Research Institute, priority 2017, published 2021)

Each compound was assayed against T1, KIAA1033 WASH complex subunit 7 (Homo sapiens, UniProt Q2M389) (assay: competitive isoTOP-ABPP). Conditions: 50 uM, 231 sol, in vitro.
T1 construct: isoTOP-ABPP experiments performed in cell lysates (in vitro); endogenous in cells; host or cells: soluble proteome of human cancer cell lines (MDA-MB-231; Ramos and Jurkat also prepared)
T1 sequence (Q2M389 1-1173): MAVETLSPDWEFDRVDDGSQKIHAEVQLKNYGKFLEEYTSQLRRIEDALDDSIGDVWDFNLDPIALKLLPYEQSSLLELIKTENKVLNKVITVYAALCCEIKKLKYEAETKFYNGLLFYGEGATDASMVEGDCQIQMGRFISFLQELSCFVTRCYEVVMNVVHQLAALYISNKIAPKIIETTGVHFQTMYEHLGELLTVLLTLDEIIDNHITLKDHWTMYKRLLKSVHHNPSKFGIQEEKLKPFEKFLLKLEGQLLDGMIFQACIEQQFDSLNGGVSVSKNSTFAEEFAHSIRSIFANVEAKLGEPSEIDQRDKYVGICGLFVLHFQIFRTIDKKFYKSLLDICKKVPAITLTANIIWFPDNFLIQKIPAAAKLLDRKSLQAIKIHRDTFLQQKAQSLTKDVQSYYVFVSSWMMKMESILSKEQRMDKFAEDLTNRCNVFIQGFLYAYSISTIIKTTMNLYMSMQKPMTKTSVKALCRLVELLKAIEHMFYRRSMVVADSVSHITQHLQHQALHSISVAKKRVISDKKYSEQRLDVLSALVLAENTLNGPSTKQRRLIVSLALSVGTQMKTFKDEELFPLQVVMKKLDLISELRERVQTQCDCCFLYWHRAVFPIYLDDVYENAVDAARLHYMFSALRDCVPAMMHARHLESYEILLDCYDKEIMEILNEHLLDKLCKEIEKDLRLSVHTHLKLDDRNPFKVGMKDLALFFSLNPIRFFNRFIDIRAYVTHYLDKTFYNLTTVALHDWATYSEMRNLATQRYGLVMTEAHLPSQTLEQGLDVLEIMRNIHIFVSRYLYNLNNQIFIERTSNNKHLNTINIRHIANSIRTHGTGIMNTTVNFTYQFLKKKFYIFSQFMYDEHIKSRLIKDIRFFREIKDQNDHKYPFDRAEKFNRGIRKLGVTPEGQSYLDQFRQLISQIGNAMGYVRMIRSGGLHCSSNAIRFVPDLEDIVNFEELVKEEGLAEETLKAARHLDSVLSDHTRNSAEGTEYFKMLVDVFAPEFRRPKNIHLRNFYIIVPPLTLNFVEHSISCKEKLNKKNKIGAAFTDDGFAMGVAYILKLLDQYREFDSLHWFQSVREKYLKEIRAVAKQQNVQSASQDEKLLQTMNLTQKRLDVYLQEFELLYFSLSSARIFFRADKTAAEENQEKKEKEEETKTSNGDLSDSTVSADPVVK
Type: binding
In short: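 Fragments at 50 μM (activated esters) or 100 μM (guanidinylating agents) were incubated with 0.5 ml lysate before probe labeling. After 0.1 mM STP-alkyne for 1 h, samples were clicked to isotopically distinct TEV tags, and R taken as DMSO-over-compound MS1 peak-area ratio.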

SMILES | isoTOP-ABPP reactivity ratio at lysine Q2M389_K302
O=C(Oc1c(F)c(F)c(F)c(F)c1F)C1CCN(C(=O)OCc2ccccc2)CC1 [fragment 24, 1-Benzyl 4-(pentafluorophenyl) piperidine-1,4-dicarboxylate] | 1.0
O=C(CCc1coc2cc(F)ccc2c1=O)Oc1c(F)c(F)c(F)c(F)c1F [fragment 26, Pentafluorophenyl 3-(7-fluoro-4-oxo-4H-chromen-3-yl)propanoate] | 1.8
O=C(CCc1cn(-c2ccccc2)nc1-c1ccccc1)Oc1ccc([N+](=O)[O-])cc1[N+](=O)[O-] [fragment 29, 2,4-Dinitrophenyl 3-(1,3-diphenyl-1H-pyrazol-4-yl)propanoate] | 1.1
O=C(Oc1ccc([N+](=O)[O-])cc1[N+](=O)[O-])C(c1ccccc1)c1ccccc1 [fragment 30, 2,4-Dinitrophenyl 2,2-diphenylacetate] | 1.6
COc1cc(CCC(=O)Oc2ccc([N+](=O)[O-])cc2[N+](=O)[O-])cc(OC)c1OC [fragment 33, 2,4-Dinitrophenyl 3-(3,4,5-trimethoxyphenyl)propanoate] | 0.9

Same assay, conditions: 50 uM, in vitro, sol, 231

SMILES | isoTOP-ABPP ratio (R) at liganded lysine Q2M389_K302
O=C(Oc1ccc([N+](=O)[O-])cc1[N+](=O)[O-])c1ccc2ccccc2n1 [fragment 35, 2,4-Dinitrophenyl quinoline-2-carboxylate] | 1.4
O=C(CCc1coc2cc(F)ccc2c1=O)Oc1ccc([N+](=O)[O-])cc1[N+](=O)[O-] [fragment 36, 2,4-Dinitrophenyl 3-(7-fluoro-4-oxo-4H-chromen-3-yl)propanoate] | 1.2
O=C(Oc1ccc([N+](=O)[O-])cc1[N+](=O)[O-])c1ccc(-c2ccccc2)cc1 [fragment 37, 2,4-Dinitrophenyl [1,1′-biphenyl]-4-carboxylate] | 0.9
O=C(Oc1ccc([N+](=O)[O-])cc1[N+](=O)[O-])c1ccc(Oc2ccccc2)cc1 [fragment 39, 2,4-Dinitrophenyl 4-phenoxybenzoate] | 1.2
O=C(Oc1ccc([N+](=O)[O-])cc1[N+](=O)[O-])c1ccccc1Nc1cccc(C(F)(F)F)c1 [fragment 40, 2,4-Dinitrophenyl 2-((3-(trifluoromethyl)phenyl)amino)benzoate] | 0.9
CC(C)(C)OC(=O)NCCCC(=O)Oc1ccc([N+](=O)[O-])cc1[N+](=O)[O-] [fragment 41, 2,4-Dinitrophenyl 4-((tert-butoxycarbonyl)amino)butanoate] | 1.5

Same assay, conditions: 50 uM_231_sol_in vitro

SMILES | isoTOP-ABPP ratio, lysine Q2M389_K302
N#Cc1ccc(C(=O)Oc2ccc([N+](=O)[O-])cc2[N+](=O)[O-])cc1 [fragment 44, 2,4-Dinitrophenyl 4-cyanobenzoate] | 1.3
O=C(CCc1ccc2c(c1)OCO2)Oc1ccc([N+](=O)[O-])cc1[N+](=O)[O-] [fragment 45, 2,4-Dinitrophenyl 3-(benzo[d][1,3]dioxol-5-yl)propanoate] | 1.2
NC(=O)c1cc(C(F)(F)F)cc(C(F)(F)F)c1 [fragment 51, reference compound] | 1.5

Same assay, conditions: 100 uM_231_sol_in vitro

SMILES | isoTOP-ABPP ratio, lysine Q2M389_K302
CC(C)(C)OC(=O)N=C(NC(=O)OC(C)(C)C)n1cccn1 [fragment 50, reference compound] | 5.3

Same assay, conditions: Q2M389_K302; 50 uM, 231 sol, in vitro

SMILES | R value (DMSO/fragment) for probe 1 labeling
O=C(CCc1cn(-c2ccccc2)nc1-c1ccccc1)Oc1c(F)c(F)c(F)c(F)c1F [fragment 19, Pentafluorophenyl 3-(1,3-diphenyl-1H-pyrazol-4-yl)propanoate] | 0.8
O=C(Oc1c(F)c(F)c(F)c(F)c1F)C(c1ccccc1)c1ccccc1 [fragment 20, Pentafluorophenyl 2,2-diphenylacetate] | 0.9
Cn1cc(CC(=O)Oc2c(F)c(F)c(F)c(F)c2F)c2ccccc21 [fragment 22, Pentafluorophenyl 2-(1-methyl-1H-indol-3-yl)acetate] | 3.6
COc1cc(CCC(=O)Oc2c(F)c(F)c(F)c(F)c2F)cc(OC)c1OC [fragment 23, Pentafluorophenyl 3-(3,4,5-trimethoxyphenyl)propanoate] | 1.5
